Here are results for two compounds from patent publication US10612035B2, “EPSPS mutants” (priority 2006, dated 2020).

Structures are written as SMILES.

Assay [1] concerns the target wild-type EPSPS from E. coli (Escherichia coli, UniProt P0A6D3). To be noted: read-out: apparent Km for PEP; cited from earlier work.
Assay [2] deals with EPSPS mutations in E coli (Area) and Arabidopsis NM 130093. The settings on record: mutations 1-9 of the table.
Description: To identify mutant EPSPS genes that will produce a gene product that provides resistance to glyphosate, in vitro screening can be done in a bacterial system to save time and resources. Growth curves of bacterial colonies expressing candidate mutant EPSPS genes can be generated to evaluate the mutant EPSPS genes in providing a glyphosate resistant phenotype. […] In another embodiment of the present invention, the E coli EPSPS gene, also called the AroA gene, can be used to evaluate EPSPS mutants for glyphosate resistance. Growth curve assays and enzymatic assays measuring Ki and Km values for candidate mutants are conducted according to well known assay techniques.
Assay [3] deals with Canola plants regenerated that contain the P178A mutant. To be noted: applied at commercial rates; canola with P178A EPSPS mutant. The source says:
The following genoplast (recombinagenic oligonucleobase) was made to make a P178A change in Brassica napus (canola) germplasm:
wherein V is a fluorescent dye (V=Cy3) and H is a reverse nucleotide or reverse base (H=3′DMTdCCPG). The underlined nucelobases represent the heterologous region (codon) where the mutation occurs in the canola genome, ie, A. The genoplast is made according to well known techniques and the genoplast is preferably delivered into a canola plant cell via microparticle bombardment, ie, biolistics.

The subject of assay [4] is Rice plants regenerated that contain the P173A mutant. To be noted: applied at commercial rates; rice with P173A EPSPS mutant. From the text:
The following genoplast (recombinagenic oligonucleobase) was made to make a P173A change in Oryza sativa (rice) germplasm:
wherein V is a fluorescent dye (V=Cy3) and H is a reverse nucleotide or reverse base (H=3′DMTdCCPG). The underlined nucleobases represent the heterologous region (codon) where the mutation occurs in the rice genome, ie, A. The genoplast is made according to well known techniques and the genoplast is preferably delivered into a rice plant cell via microparticle bombardment, ie, biolistics.

wild-type EPSPS from E. coli, sequence (P0A6D3 whole entry): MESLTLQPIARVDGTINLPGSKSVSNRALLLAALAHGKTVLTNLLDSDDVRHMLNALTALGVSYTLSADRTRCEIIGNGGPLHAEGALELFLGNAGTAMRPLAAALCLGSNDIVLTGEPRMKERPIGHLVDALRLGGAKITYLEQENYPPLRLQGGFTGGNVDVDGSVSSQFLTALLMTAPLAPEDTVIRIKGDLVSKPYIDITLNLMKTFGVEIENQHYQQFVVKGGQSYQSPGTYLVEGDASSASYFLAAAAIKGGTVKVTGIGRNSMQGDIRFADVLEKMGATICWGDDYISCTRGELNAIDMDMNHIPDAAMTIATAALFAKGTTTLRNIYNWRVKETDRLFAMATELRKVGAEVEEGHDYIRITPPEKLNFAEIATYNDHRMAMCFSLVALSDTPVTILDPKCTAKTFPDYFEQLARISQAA

On to `C=C(OP(=O)(O)O)C(=O)O` [PEP, phosphoenolpyruvic acid], for which, in assay [1], the Km was 10 µM.

As for `O=C(O)CNCP(=O)(O)O` [glyphosate, N-phosphonomethylglycine], the glyphosate resistant phenotype entry in assay [2] was “resistant”. Besides, the “resistance of plants to glyphosate” value in assay [3] and in assay [4] was “resistant” throughout.

The term Km denotes the substrate concentration at which the rate is half of its maximum.
